Experimental data taken from DBAASP.
Values after ≈ are worked out from the molar mass of the structure shown.

Columns and labels:
Experiment in all cases: ≥ marks a high value that may be exact or a test limit, other limits are often not marked, values filed in µg/mL are converted to µM
[1] = test system: Acinetobacter baumannii 97830
[2] = test system: Acinetobacter baumannii 9931
[3] = test system: Acinetobacter baumannii ATCC 19606
[4] = test system: Bacillus subtilis ATCC 23857
Escherichia coli 780 = test system: Escherichia coli 780
Escherichia coli 804 = test system: Escherichia coli 804
[5] = test system: Klebsiella pneumoniae ATCC 700603
[6] = test system: Pseudomonas aeruginosa 50
[7] = test system: Pseudomonas aeruginosa 73
[8] = test system: Pseudomonas aeruginosa ATCC 27853
[9] = test system: Pseudomonas aeruginosa ATCC 9027
[10] = test system: Staphylococcus aureus 113
Staphylococcus aureus 75 = test system: Staphylococcus aureus 75
[11] = test system: Staphylococcus aureus ATCC 29213
[12] = test system: Staphylococcus epidermidis ATCC 12228
Bacillus subtilis 168 = test system: Bacillus subtilis 168
[13] = test system: Candida albicans F7-39/IDE99
Escherichia coli B = test system: Escherichia coli B
Pseudomonas aeruginosa = test system: Pseudomonas aeruginosa
Staphylococcus aureus = test system: Staphylococcus aureus
[14] = test system: Bacillus subtilis ATCC 9372
[15] = test system: Escherichia coli ATCC 25922
[16] = test system: Salmonella typhimurium ATCC 50013
[17] = test system: Shigella dysenteriae ATCC 51302
[18] = test system: Staphylococcus aureus ATCC 25923
[19] = test system: Streptococcus pneumoniae ATCC 49619
[20] = test system: Bacillus magaterium AB90008
[21] = test system: Enterobacter cloacae AB2010162
[22] = test system: Escherichia coli DH5alpha
[23] = test system: Klebsiella pneumoniae ATCC 27736
[24] = test system: Micrococcus luteus AB2010179
[25] = test system: Pseudomonas aeruginosa ATCC BAA-427
Pseudomonas fluorescens = test system: Pseudomonas fluorescens
Pseudomonas putida = test system: Pseudomonas putida
[26] = test system: Salmonella enterica AB2010185
[27] = test system: Staphylococcus aureus AB94004
[28] = test system: Staphylococcus aureus ATCC 33591
[29] = test system: Bacillus subtilis ATCC 6633
[30] = test system: Enterococcus faecalis ATCC 12953
[31] = test system: Escherichia coli ATCC 8739
[32] = test system: Klebsiella pneumoniae ATCC 13885
[33] = test system: Proteus mirabilis ATCC 25933
[34] = test system: Pseudomonas aeruginosa ATCC 15442
[35] = test system: Salmonella enterica subsp. enterica serovar Typhimurium ATCC 14028
[36] = test system: Streptococcus pyogenes ATCC 19615

Row | MIC [1] [µM] | MIC [2] [µM] | MIC [3] [µM] | MIC [4] [µM] | MIC (Escherichia coli 780) [µM] | MIC (Escherichia coli 804) [µM] | MIC [5] [µM] | MIC [6] [µM] | MIC [7] [µM] | MIC [8] [µM] | MIC [9] [µM] | MIC [10] [µM] | MIC (Staphylococcus aureus 75) [µM] | MIC [11] [µM] | MIC [12] [µM] | SMILES | other results
1 | 8 (≈ 11.2 µg/mL) | ≥ 32 | 32 (≈ 44.9 µg/mL) | 8 (≈ 11.2 µg/mL) | 16 (≈ 22.4 µg/mL) | 8 (≈ 11.2 µg/mL) | 8 (≈ 11.2 µg/mL) | ≥ 32 | ≥ 32 | 32 (≈ 44.9 µg/mL) | 32 (≈ 44.9 µg/mL) | 8 (≈ 11.2 µg/mL) | 4 (≈ 5.61 µg/mL) | 8 (≈ 11.2 µg/mL) | 8 (≈ 11.2 µg/mL) | C[C@H](N)C(=O)N[C@@H](Cc1c[nH]c2ccccc12)C(=O)N[C@@H](CCCN=C(N)N)C(=O)N[C@@H](Cc1c[nH]c2ccccc12)C(=O)N[C@@H](Cc1c[nH]c2ccccc12)C(=O)N[C@@H](Cc1c[nH]c2ccccc12)C(=O)N[C@@H](CCCN=C(N)N)C(=O)N[C@@H](Cc1c[nH]c2ccccc12)C(=O)N[C@@H](C)C(N)=O [AWRWWWRWA] | –
2 | 8 (≈ 12 µg/mL) | 16 (≈ 23.9 µg/mL) | 16 (≈ 23.9 µg/mL) | 2 (≈ 2.99 µg/mL) | 16 (≈ 23.9 µg/mL) | 16 (≈ 23.9 µg/mL) | 16 (≈ 23.9 µg/mL) | 4 (≈ 5.98 µg/mL) | 16 (≈ 23.9 µg/mL) | 4 (≈ 5.98 µg/mL) | 8 (≈ 12 µg/mL) | 8 (≈ 12 µg/mL) | 4 (≈ 5.98 µg/mL) | 4 (≈ 5.98 µg/mL) | 8 (≈ 12 µg/mL) | NC(=O)[C@H](Cc1ccccc1)NC(=O)[C@H](CCCN=C(N)N)NC(=O)[C@H](CCCN=C(N)N)NC(=O)[C@H](Cc1c[nH]c2ccccc12)NC(=O)[C@H](Cc1c[nH]c2ccccc12)NC(=O)[C@H](Cc1c[nH]c2ccccc12)NC(=O)[C@H](CCCN=C(N)N)NC(=O)[C@H](CCCN=C(N)N)NC(=O)[C@@H](N)Cc1ccccc1 [FRRWWWRRF] | –
3 | – | – | – | – | – | – | – | – | – | – | – | – | – | – | – | CC[C@H](C)[C@H](NC(=O)[C@H](Cc1cnc[nH]1)NC(=O)[C@H](CCCCN)NC(=O)[C@H](CC(C)C)NC(=O)[C@H](Cc1ccccc1)NC(=O)[C@H](CO)NC(=O)[C@H](CCSC)NC(=O)[C@H](Cc1c[nH]c2ccccc12)NC(=O)[C@H](CCCCN)NC(=O)CN)C(=O)N[C@@H](CC(C)C)C(=O)N[C@@H](CCCCN)C(N)=O [GKWMSFLKHILK] | MIC (Bacillus subtilis 168): 1.1 µM (≈ 1.64 µg/mL); MIC [13]: 6.8 µM (≈ 10.1 µg/mL); MIC (Escherichia coli B): 4 µM (≈ 5.95 µg/mL); MIC (Pseudomonas aeruginosa): 21.8 µM (≈ 32.4 µg/mL); MIC (Staphylococcus aureus): 6.4 µM (≈ 9.52 µg/mL)
4 | – | – | – | – | – | – | – | – | – | 57.9 (≈ 64 µg/mL) | – | – | – | – | – | CC(C)C[C@H](NC(=O)CN)C(=O)N[C@@H](CO)C(=O)N[C@@H](CCCN=C(N)N)C(=O)N[C@@H](CC(C)C)C(=O)N[C@@H](Cc1ccccc1)C(=O)N[C@H](C(=O)N[C@@H](C)C(=O)N[C@@H](CC(C)C)C(=O)N[C@@H](CCCCN)C(=O)O)[C@@H](C)O [GLSRLFTALK] | MIC [14]: 14.5 µM (≈ 16 µg/mL); MIC [15]: 29 µM (≈ 32 µg/mL); MIC [16]: 29 µM (≈ 32 µg/mL); MIC [17]: ≥ 232 µM; MIC [18]: 14.5 µM (≈ 16 µg/mL); MIC [19]: ≥ 57.9 µM
5 | – | – | > 26.7 | – | – | – | – | – | – | – | – | – | – | – | – | CC[C@H](C)[C@H](N)C(=O)N[C@@H](CC(C)C)C(=O)NCC(=O)N[C@@H](CCC(=O)O)C(=O)N[C@H](C(=O)N[C@@H](Cc1c[nH]c2ccccc12)C(=O)N[C@@H](CCCCN)C(=O)NCC(=O)N[C@H](C(=O)N[C@@H](CCCCN)C(=O)N[C@@H](CC(=O)O)C(=O)N[C@H](C(=O)N[C@@H](CC(C)C)C(N)=O)[C@@H](C)CC)[C@@H](C)CC)[C@@H](C)CC [ILGEIWKGIKDIL] | MIC [20]: ≥ 41 µM; MIC [21]: ≥ 82 µM; MIC [15]: ≥ 100 µM; MIC [22]: ≥ 82 µM; MIC [23]: ≥ 100 µM; MIC [24]: ≥ 82 µM; MIC [25]: ≥ 100 µM; MIC (Pseudomonas fluorescens): ≥ 82 µM; MIC (Pseudomonas putida): ≥ 82 µM; MIC [26]: ≥ 82 µM; MIC [27]: ≥ 82 µM; MIC [18]: ≥ 100 µM; MIC [28]: ≥ 100 µM
6 | ≥ 32 | ≥ 32 | 64 (≈ 71.3 µg/mL) | 8 (≈ 8.91 µg/mL) | 16 (≈ 17.8 µg/mL) | 16 (≈ 17.8 µg/mL) | 32 (≈ 35.7 µg/mL) | ≥ 32 | ≥ 32 | 16 (≈ 17.8 µg/mL) | 32 (≈ 35.7 µg/mL) | 8 (≈ 8.91 µg/mL) | 8 (≈ 8.91 µg/mL) | 4 (≈ 4.46 µg/mL) | 8 (≈ 8.91 µg/mL) | CC[C@H](C)[C@H](N)C(=O)N[C@@H](CCCN=C(N)N)C(=O)N[C@@H](Cc1c[nH]c2ccccc12)C(=O)N[C@@H](Cc1c[nH]c2ccccc12)C(=O)N[C@@H](Cc1c[nH]c2ccccc12)C(=O)N[C@@H](CCCN=C(N)N)C(=O)N[C@H](C(N)=O)[C@@H](C)CC [IRWWWRI] | –

Row | SMILES | MIC [1] [µM] | MIC [2] [µM] | MIC [3] [µM] | MIC [4] [µM] | MIC (Escherichia coli 780) [µM] | MIC (Escherichia coli 804) [µM] | MIC [5] [µM] | MIC [6] [µM] | MIC [7] [µM] | MIC [8] [µM] | MIC [9] [µM] | MIC [10] [µM] | MIC (Staphylococcus aureus 75) [µM] | MIC [11] [µM] | MIC [12] [µM] | other results
7 | NCCCC[C@H](NC(=O)[C@@H](N)CCCCN)C(=O)N[C@@H](Cc1ccccc1)C(=O)N[C@@H](Cc1c[nH]c2ccccc12)C(=O)N[C@@H](CCC(=O)O)C(=O)N[C@@H](CC(=O)O)C(=O)N[C@@H](CC(=O)O)C(=O)NCC(N)=O [KKFWEDDG] | – | – | – | – | – | – | – | – | – | – | – | – | – | 250 (≈ 256 µg/mL) | – | MIC [29]: ≥ 250 µM; MIC [30]: ≥ 125 µM; MIC [31]: ≥ 250 µM; MIC [32]: ≥ 125 µM; MIC [33]: ≥ 125 µM; MIC [34]: ≥ 250 µM; MIC [35]: 125 µM (≈ 128 µg/mL); MIC [36]: ≥ 125 µM
